# According to patent US7968526B2, “Antisense oligonucleotides directed to ribonucleotide reductase R2 and uses thereof in the treatment of cancer” (Lorus Therapeutics Inc., priority 2003, dated 2011):
# Entries after “also recorded” stand apart in the source; their conditions may differ.
# Assays:
# [1] = system: SK-OV-3 human ovarian cancer cells; assay: SK-OV-3 ovary tumour growth in Balb/c nude mice (3.4); type: in vivo, human cells in mice
# Procedure: (§1) Treatments lasted for 14 days thereafter. Antitumour activities were estimated by the inhibition of tumour volume, which was measured with a caliper on four different occasions over the treatment period. Each point represents mean tumour volume calculated from 5 animals per experimental group. […] Control animals (control) received saline alone for the same period. At the end of the treatments, the animals were sacrificed, tumours were excised and their weights were measured. Each bar represents mean tumour weight calculated from 6 animals per experimental group. […] Treatments lasted for 24 days thereafter. Antitumour activities were estimated by the inhibition of tumour volume, which was measured with a caliper at two-day intervals over the treatment period. Each point represents mean tumour volume calculated from 4 animals per experimental group. […] Treatments lasted for 24 days thereafter. Antitumour activities were estimated by the inhibition of tumour volume, which was measured with a caliper at two-day intervals over the treatment period. Each point represents mean tumour volume calculated from 4 animals per experimental group. […] Each point represents mean tumour volume calculated from 5 animals per experimental group. […] Antitumour activities were estimated by the inhibition of tumour volume, which was measured with a caliper on four different occasions over 16-day period. Each point represents mean tumour volume calculated from 5 animals per experimental group. […] Antitumour activities were estimated by the inhibition of tumour volume, which was measured with a caliper at two-day intervals over the treatment period. Each point represents mean tumour volume calculated from 5 animals per experimental group. […] Antitumour activities were estimated by the inhibition of tumour volume, which was measured with a caliper at various time intervals over the span of 30 days. Each point represents mean tumour volume calculated from 6 animals per experimental group. […] Antitumour activities were estimated by the inhibition of tumour volume, which was measured with a caliper. […]
# [2] = 21-day intravenous toxicity study in the rat with a 21-day recovery; type: in vivo, Sprague-Dawley rats
# Procedure: SEQ ID NO:1 was administered to Sprague-Dawley rats via intravenous bolus injection every second day up to 21 days, with a 21-day recovery period. The study design included 4 treatment groups; vehicle controls, 2 mg/kg, 10 mg/kg, and 50 mg/kg. The main study group consisted of 10 animals/sex, and an additional 5 animals/sex were included in the control and high-dose groups for a recovery phase. Satellite animals (6/sex/group) were also included for toxicokinetic analysis.
# [3] = 21-day continuous infusion toxicity study in the monkey with a 3-week recovery; type: in vivo
# Procedure: A second repeat-dose study was conducted in monkeys to evaluate the toxicity associated with administration of test article by continuous intravenous infusion for 21 days followed by a 21-day recovery period. Twenty-eight monkeys were administered one of the following dose levels; vehicle control, 2 mg/kg/day, 10 mg/kg/day, or 50 mg/kg/day. Toxicokinetic samples were collected prior to the initiation of infusion, approximately 8, 24, 48, and 96 hours following the start of infusion, and on Day 20 prior to the change in dose-syringes. […] As in the previous rat study, the 2 mg/kg/day dose level was identified as the no-adverse-effect-level (NOAEL).
# [4] = system: Caki renal tumour xenografts; assay: Caki renal tumour xenografts in SCID/beige mice (immune stimulation); type: in vivo, human cells in mice; conditions: Caki renal tumour xenografts in SCID/beige mice (lack B, T and NK cell function)
# Procedure: To directly determine whether SEQ ID NO:1 treatment results in CpG stimulation of NK-mediated anti-tumour activity, the efficacy of SEQ ID NO:1 on human tumour xenografts in SCID/beige mice was assessed (FIG. 32). SCID/beige mice lack B, T and NK cell function and as such these mice cannot mount a significant innate or acquired immune response.
# [5] = system: NCI-H460 human lung cancer cells; assay: NCI-H460 lung tumour growth in CD-1 nude mice (3.5); type: in vivo, human cells in mice
# Procedure: as §1
# [6] = 50 mg/kg i.v. bolus every second day up to 21 days
# [7] = continuous i.v. infusion 21 days
substance,measurement,setting,value
"5′-GGCTAAATCGCTCCACCAAG-3′ (all phosphorothioate, sugars by position and methylation of C not given here) [SEQ ID NO: 1, fully phosphorothioated antisense oligonucleotide that hybridizes to the coding region of R2 mRNA]",Inhibition of tumour weight,[1]; Human Ovary Adenocarcinoma,tumour weight of approximately 50%
same,Inhibition of tumour size,"[1]; Human Ovary Adenocarcinoma in Balb/c Nu-Nu mice, Days 19 to 25 after tumour implantation",Inhibition of tumour size by approximately 35%
same,"Inhibitory effect on tumour growth (tumour volume, FIG. 18C)","[1]; SK-OV-3, Balb/c nude mice, 10 mg/kg i.v. every other day, 22 days",statistically significant inhibitory effects on the growth of human ovary adenocarcinoma cells
same,Toxicity findings,[2]; 2 mg/kg i.v. bolus every second day up to 21 days,no remarkable effects on any of the above parameters
same,Toxicity findings,[2]; 10 mg/kg i.v. bolus every second day up to 21 days,"no clinical signs, no effects on body weight or food consumption, a lesser degree of anemia and thrombocytopenia, and only minor changes in a few serum chemistry parameters"
same,Mortality,[2]; [6],A single mortality
same,Toxicity findings,[2]; [6],"various adverse clinical signs, a decrement in body weight gain (associated with diminished food consumption), lymphocytosis, moderate anemia and thrombocytopenia, and various relatively mild changes in serum chemistry parameters"
same,Target organs (histopathology),[2]; 10 and 50 mg/kg,"lymphoid system, kidneys, and liver"
same,no-adverse-effect-level (NOAEL),[2]; 21-day study,2 mg/kg/day
same,Deaths,"[3]; 2, 10 or 50 mg/kg/day continuous i.v. infusion 21 days",No unplanned deaths
same,Reversibility of changes,[3]; 3-week post-dosing treatment-free period,reversed either completely or partially
same,Toxicity findings,[3]; 10 and 50 mg/kg/day continuous i.v. infusion 21 days,"splenic histiocytosis, anticoagulant effects, complement activation, and continuous infusion effects"
same,Target organs (histopathologic changes),[3]; [7],"kidneys, liver, and lymph nodes"
same,no-adverse-effect-level (NOAEL),[3]; [7],2 mg/kg/day
same,Anti-tumour effect (FIG. 32),[4],effectively treated; also recorded: equivalent in extent and kinetics to that obtained in the SCID mouse model; also recorded: anti-tumour activity is specific to the R2 complementary sequence
same,Inhibition of tumour weight,[5]; Human Lung Carcinoma,~70%
same,Inhibition of tumour size,"[5]; Human Lung Carcinoma in CD-1 Nude mice, Days 14 to 19 after tumour implantation",Inhibition of tumour size by approximately 85%
same,"Inhibitory effect on tumour growth (tumour volume, FIG. 18D)","[5]; NCI-H460, CD-1 nude mice, 10 mg/kg i.v. every other day, 14 days",strong inhibitory effects on the growth of human lung carcinoma
